Like-named read-outs stand apart in the source and are kept apart here. Positions of bridges follow the written chain, without caps; N, C: chain ends. Residues, ends and D or L forms follow the SMILES beside them.
What was measured:
A. veronii ACCC61732 [1] = assay: ATP release, BacTiter-Glo; format: cell-based; settings: 8×, 16× and 32× MIC, 60 min, 37 °C, luminescence, n = 3
Method: The assay was performed for three biological replicates at 37 °C, with luminescence recorded using a Tecan Infinite M1000 Pro plate reader. The fold reduction of ATP was calculated as: Fold reduction ATP = 1 − (Ltreat − Lmedia/Lcontrol − Lmedia), where Ltreat is the luminescence of treated cells, Lmedia is the luminescence of MHB without cells, and Lcontrol is the luminescence of untreated cells. Resultant graphs show mean (n = 3) and SEM for each data point, prepared in Prism 7 [46].

in vitro = settings: mouse, 25% mouse serum
A. veronii ACCC61732 [2] = assay: Inner membrane permeability, PI staining, flow cytometry; format: cell-based
Method: To analyze effects of peptides on the inner membrane, A. veronii ACCC61732 cells were cultured to mid-log phase at 37 °C in MHB medium, washed thrice with PBS, and resuspended in the PBS buffer to 1 × 10^8 CFU/mL. […] After fixation with PI, the samples were detected by a fluorescent inverted microscope and FACS Calibur Flow Cytometer (BD, San Jose, CA, USA), respectively. Cell Quest Pro software (BD, San Jose, CA, USA) was used for the data analysis.

[3] = tested on: Salmonella typhimurium ATCC14028; format: cell-based
A. veronii ACCC61732 [4] = assay: microbe, parasite or virus in culture; format: cell-based
Text: The checkerboard microtiter assay was used to determine the combinations of peptides with different antibiotics (including quinolone, rifamycin, peptide antibiotics, aminoglycoside, tetracycline, and chloramphenicol). […] The fractional inhibitory concentration (FIC) was used to calculate the combination effects using the following formula: FIC index (FICI) = MIC(peptide in combination)/MIC(peptide alone) + MIC(antibiotic in combination)/MIC(antibiotic alone). FICI ≤ 0.5 means synergistic, 0.5 < FICI ≤ 1 means additive action, 1 < FICI ≤ 4 means indifference, and FICI > 4 means antagonism.

A. veronii ATCC35624 = format: cell-based
S. hyicus NCTC10350 = tested on: S. hyicus NCTC10350
Method: (§1) Briefly, the tested strains including Gram-negative bacteria, Gram-positive bacteria, and fungi were cultured to the logarithmic growth phase, diluted to 10^5 CFU/mL, and added into 96-well plates (90 μL/well). Two-fold serial dilutions of peptides or antibiotics dissolved in PBS were added to each well (10 μL/well). […] All experiments were repeated three times.

S. aureus ATCC546 = tested on: S. aureus ATCC546
Method: as §1

A. veronii CL0901 = tested on: A. veronii CL0901
Method: as §1

[5] = tested on: Aeromonas veronii ACCC61732
Method: as §1

[6] = tested on: Pseudomonas aeruginosa CICC21630
Method: as §1

S. aureus ATCC25923 = tested on: S. aureus ATCC25923
Method: as §1

A. veronii ACCC61732 [7] = assay: Outer membrane permeabilization, NPN assay; format: cell-based; settings: NPN fluorescence, 1×–4× MIC
Method: The outer membrane permeabilization abilities of peptides were determined using the fluorescent NPN assay. Mid-log phase A. veronii ACCC61732 was collected by centrifugation, washed twice, and then suspended in N-2-hydroxyethylpiperazine-n-2-ethane sulfonic acid (HEPES) buffer (pH 7.4) to an OD600nm = 0.4. […] Fluorescence intensity was recorded until no further increase with a microplate reader (excitation/emission, 328/438 nm).

A. veronii ACCC61732 [8] = assay: Organ injury in peritonitis model, histology; format: in vivo, mice; settings: peptides 5 μmol/kg, CIP 1 μmol/kg
Method: Livers, kidneys, spleens, and lungs were removed from mice at 24 h and five days post treatment to evaluate the organ injury. After washing with PBS, the organs were fixed in 4% paraform-aldehyde for 24 h at 4 °C, dehydrated by a graded series of ethanol (75‒95%), and infiltrated with xylene. The organs were then embedded in paraffin wax, sectioned, and stained with hematoxylin and eosin. Finally, the tissue samples were fixed and observed by the light microscope. The CIP-treated mice served as the positive control and the PBS group served as the negative control.

Escherichia coli = assay: MIC, range over strains; format: cell-based; settings: range over the strains of Table 2
Text: (§2) All experiments were repeated three times.

A. veronii = assay: MIC, range over strains; format: cell-based; settings: range over the strains of Table 2
Text: as §2

MDR A. veronii ACCC61732 = assay: Mouse peritonitis model, survival; format: in vivo, ICR mice; settings: 5 μmol/kg i.p. 0.5 h after infection, seven days, six mice
Method: […]. The mice injected with only bacteria or saline served as the negative and blank control. The mouse survival was recorded daily for seven days.

[9] = Salmonella typhimurium ATCC14028, broth dilution, 37 °C, 16–18 h, three experiments
[10] = A. veronii ATCC35624, broth dilution, 37 °C, 16–18 h, three experiments
[11] = S. hyicus NCTC10350, broth dilution, 37 °C, 16–18 h, three experiments
[12] = S. aureus ATCC546, broth dilution, 37 °C, 16–18 h, three experiments
[13] = A. veronii CL0901, broth dilution, 37 °C, 16–18 h, three experiments
[14] = Aeromonas veronii ACCC61732 (MDR), broth dilution, 37 °C, 16–18 h, three experiments
[15] = S. aureus ATCC25923, broth dilution, 37 °C, 16–18 h, three experiments
[16] = Pseudomonas aeruginosa CICC21630, broth dilution, 37 °C, 16–18 h, three experiments

| SMILES | remaining at 2 h (in vitro) | remaining at 4.5 h (in vitro) | remaining at 6 h (in vitro) | Permeability (PI-positive cells) (A. veronii ACCC61732 [2]; 1× MIC, 0.5 h) | Permeability (PI-positive cells) (A. veronii ACCC61732 [2]; 1× MIC, 2 h) | Permeability (PI-positive cells) (A. veronii ACCC61732 [2]; 2× MIC, 0.5 h) | Permeability (PI-positive cells) (A. veronii ACCC61732 [2]; 2× MIC, 2 h) | MIC [3, 9] | MIC (A. veronii ATCC35624; [10]) | MIC (A. veronii ATCC35624; ATCC35624) | MIC (S. hyicus NCTC10350; NCTC10350) | MIC (S. hyicus NCTC10350; [11]) | MIC (S. aureus ATCC546; ATCC546) | MIC (S. aureus ATCC546; [12]) | MIC (A. veronii CL0901) | MIC (A. veronii CL0901; [13]) | MIC [5, 14] | MIC ([6]; CICC21630) | MIC (S. aureus ATCC25923; ATCC25923) | MIC (S. aureus ATCC25923; [15]) | also measured |
| --- | --- | --- | --- | --- | --- | --- | --- | --- | --- | --- | --- | --- | --- | --- | --- | --- | --- | --- | --- | --- | --- |
| CC(C)[C@@H]1NC(=O)CNC(=O)[C@H](CC(N)=O)NC(=O)[C@H](CCCNC(=N)N)NC(=O)[C@H](Cc2ccc(O)cc2)NC(=O)[C@H](C(C)C)NC(=O)[C@@H](NC(=O)[C@@H](NC(=O)[C@H](CC(N)=O)NC(=O)[C@H](Cc2c[nH]c3ccccc23)NC(=O)[C@H](C)NC(=O)[C@H](Cc2ccccc2)NC(=O)[C@H](CCCN)N=C(N(C)C)N(C)C)C(C)C)CSSC[C@@H](C(=O)N[C@@H](Cc2c[nH]cn2)C(=O)N[C@@H](CCCNC(=N)N)C(=O)N[C@@H](CCCNC(=N)N)C(=O)N[C@@H](C)C(=O)N[C@@H](CC(N)=O)C(N)=O)NC(=O)[C@H](C(C)C)NC(=O)[C@H](CCCNC(=N)N)NC1=O (stereo in doubt) [Guo-N6NH2] | 84% | 56.8% | 44.2% | 0.63% | 4.96% | 0.55% | 1.91% | 4 µg/mL | 32 µg/mL | 12.16 µM | 24.32 µM | 64 µg/mL | 6.08 µM | 16 µg/mL | 6.08 µM | 16 µg/mL | 8 µg/mL | >24.3 µM | 12.16 µM | 32 µg/mL | ATP release (A. veronii ACCC61732 [1]): 66.23–92.09%; Permeability (PI-positive cells) (A. veronii ACCC61732 [2]; 4× MIC, 0.5 h): 0%; Permeability (PI-positive cells) (A. veronii ACCC61732 [2]; 4× MIC, 2 h): 2.16%; MICa, MIC of the peptide used alone (A. veronii ACCC61732 [4]): 8 µg/mL; interaction with polymyxin B (PMB) (A. veronii ACCC61732 [4]; checkerboard, by FICI): synergic effect; MIC [5]: 3.04 µM; MIC, control ([5]; Table S6 control: absence of temperature, acid and alkali, salt and enzyme condition): 8 µg/mL; ability to penetrate the outer membrane (A. veronii ACCC61732 [7]): higher ability to penetrate the outer membrane than N6NH2 |
| CC(C)[C@@H]1NC(=O)CNC(=O)[C@H](CC(N)=O)NC(=O)[C@H](CCCNC(=N)N)NC(=O)[C@H](Cc2ccc(O)cc2)NC(=O)[C@H](C(C)C)NC(=O)[C@@H](NC(=O)[C@@H](NC(=O)[C@H](CC(N)=O)NC(=O)[C@H](Cc2c[nH]c3ccccc23)NC(=O)[C@H](C)NC(=O)[C@H](Cc2ccccc2)NC(=O)CN)C(C)C)CSSC[C@@H](C(=O)N[C@@H](Cc2cnc[nH]2)C(=O)N[C@@H](CCCNC(=N)N)C(=O)N[C@@H](CCCNC(=N)N)C(=O)N[C@@H](C)C(=O)N[C@@H](CC(N)=O)C(N)=O)NC(=O)[C@H](C(C)C)NC(=O)[C@H](CCCNC(=N)N)NC1=O [N6NH2] | 85.9% | 58% | 41.9% | 0% | 1.39% | 0% | 1.49% | 4 µg/mL | 8 µg/mL | 3.23 µM | 12.9 µM | 32 µg/mL | 6.46 µM | 16 µg/mL | 6.46 µM | 16 µg/mL | 4 µg/mL | 25.8 µM | 12.9 µM | 32 µg/mL | effect on injury of liver, spleen, kidney and lung (A. veronii ACCC61732 [8]): remarkably alleviated the injury of the liver and spleen; ATP release (A. veronii ACCC61732 [1]): 56.07–90.00%; interaction with polymyxin B (PMB) (A. veronii ACCC61732 [4]; checkerboard, by FICI): synergic effect; interaction with rifampicin, streptomycin sulfate, doxycycline hyclate, and kanamycin sulfate (A. veronii ACCC61732 [4]; checkerboard, by FICI): additive effects; MIC [6, 16]: 64 µg/mL |
| CC(C)[C@H](N)C(=O)N[C@@H](Cc1ccccc1)C(=O)N[C@@H](C)C(=O)N[C@@H](Cc1c[nH]c2ccccc12)C(=O)N[C@@H](CC(N)=O)C(=O)N[C@H](C(=O)N[C@H]1CSSC[C@@H](C(=O)N[C@@H](Cc2c[nH]cn2)C(=O)N[C@@H](CCCNC(=N)N)C(=O)N[C@@H](CCCNC(=N)N)C(=O)N[C@@H](C)C(=O)N[C@@H](CC(N)=O)C(N)=O)NC(=O)[C@H](C(C)C)NC(=O)[C@H](CCCNC(=N)N)NC(=O)[C@H](C(C)C)NC(=O)[C@H](C(C)C)NC(=O)[C@H](CC(N)=O)NC(=O)[C@H](CCCNC(=N)N)NC(=O)[C@H](Cc2ccc(O)cc2)NC(=O)[C@H](C(C)C)NC1=O)C(C)C [V112N6NH2] (H-VFAWNVCVYRNVVRVCHRRAN-NH2; disulfide 7-16 (inferred)) | 81.4% | 32.1% | 19.1% | 0% | 1.8% | 0% | 5.67% | 16 µg/mL | 16 µg/mL | 6.25 µM | 25.01 µM | 64 µg/mL | 6.25 µM | 16 µg/mL | 12.51 µM | 32 µg/mL | 16 µg/mL | 12.5 µM | 12.5 µM | 32 µg/mL | effect on injury of liver, spleen, kidney and lung (A. veronii ACCC61732 [8]): significantly less damaged; Permeability (PI-positive cells) (A. veronii ACCC61732 [2]; 4× MIC, 0.5 h): 4.28%; Permeability (PI-positive cells) (A. veronii ACCC61732 [2]; 4× MIC, 2 h): 23.93%; MIC values against Escherichia coli (Escherichia coli): 1.56 to 3.13 µM; MIC values against A. veronii (A. veronii): 6.25 to 12.51 µM; MIC ([3]; ATCC14028): 6.25 µM; survival rate of mice (MDR A. veronii ACCC61732): 66.67%; MIC [5]: 6.25 µM; MIC [6, 16]: 32 µg/mL; ability to penetrate the outer membrane (A. veronii ACCC61732 [7]): best ability to penetrate the outer membrane |

Source: paper PMC7767178 (International Journal of Molecular Sciences, 2020)
